Data taken from ChEMBL document CHEMBL5137126, “Alliacane-Type Secondary Metabolites from Submerged Cultures of the Basidiomycete Clitocybe nebularis” (J Nat Prod, 2022).
In brackets after ≈: the same amount, converted by molar mass.

Legend:
[1] = system: KB 3-1; assay: Cytotoxicity against human KB 3-1 cells assessed as inhibition of cell growth incubated for 5 days by MTT assay; type: functional, cell-based; conditions: KB 3-1, 120 h
[2] = system: PC-3; assay: Cytotoxicity against human PC-3 cells assessed as inhibition of cell growth incubated for 5 days by MTT assay; type: functional, cell-based; conditions: PC-3, 120 h
[3] = system: MCF7; assay: Cytotoxicity against human MCF7 cells assessed as inhibition of cell growth incubated for 5 days by MTT assay; type: functional, cell-based; conditions: MCF7, 120 h
[4] = system: A549; assay: Cytotoxicity against human A549 cells assessed as inhibition of cell growth incubated for 5 days by MTT assay; type: functional, cell-based; conditions: A549, 120 h
[5] = system: SK-OV-3; assay: Cytotoxicity against human SK-OV-3 cells assessed as inhibition of cell growth incubated for 5 days by MTT assay; type: functional, cell-based; conditions: SK-OV-3, 120 h
[6] = Cytotoxicity against mouse L929 cells assessed as inhibition of cell growth incubated for 5 days by MTT assay; type: toxicity, cell-based
[7] = system: A-431; assay: Cytotoxicity against human A-431 cells assessed as inhibition of cell growth incubated for 5 days by MTT assay; type: functional, cell-based; conditions: A-431, 120 h
[8] = system: L929; assay: Cytotoxicity against mouse L929 cells assessed as inhibition of cell growth at 0.0006 to 0.037 ug/ml incubated for 5 days by MTT assay; type: toxicity, cell-based; conditions: l929, 120 h, dose 0.0006-0.037 µg/ml, time 5 day
[9] = system: Rhodotorula glutinis; assay: Antifungal activity against Rhodotorula glutinis DSM10134 assessed as inhibition of fungal growth incubated for 48 hrs by serial dilution method; type: functional
[10] = system: Wickerhamomyces anomalus; assay: Antifungal activity against Pichia anomala DSM6766 assessed as inhibition of fungal growth incubated overnight by serial dilution method; type: functional
[11] = system: Schizosaccharomyces pombe; assay: Antifungal activity against Schizosaccharomyces pombe DSM70572 assessed as inhibition of fungal growth incubated for 48 hrs by serial dilution method; type: functional
[12] = system: Mucor hiemalis; assay: Antifungal activity against Mucor hiemalis DSM2656 assessed as inhibition of fungal growth incubated overnight by serial dilution method; type: functional
[13] = system: Bacillus subtilis; assay: Antibacterial activity against Bacillus subtilis DSM 10 assessed as inhibition of bacterial growth incubated overnight by serial dilution method; type: functional
[14] = system: Candida albicans; assay: Antifungal activity against Candida albicans DSM1665 assessed as inhibition of fungal growth incubated overnight by serial dilution method; type: functional

C=C(C(=O)O)[C@]12O[C@]13CC(C)(C)C[C@@H]3[C@H](C)[C@H](O)C2=O
IC50 [1]: 18 µM | IC50 [2]: 36 µM | IC50 [3]: 8 µM | IC50 [4]: 53 µM | IC50 [5]: 20 µM | IC50 at 5 days [6]: 22 µM | IC50 [7]: 7 µM

C=C(C(=O)O)C1=C2CC(C)(C)C[C@@H]2[C@H](C)CC1=O
Activity [8]: Non-Toxic

C[C@@H]1C(=O)c2[nH]cc(CO)c2C2=CC(C)(C)C[C@@H]21
IC50 [1]: 47 µM | MIC [9]: 66.6 µg/mL (≈ 271 µM) | IC50 at 5 days [6]: 68 µM

NYSTATIN
MIC [10]: 4.6 µg/mL | MIC [9]: 1 µg/mL | MIC [11]: 4.2 µg/mL | MIC [12]: 9.2 µg/mL

C/C(=C\c1csc(C)n1)[C@H]1C[C@H]2O[C@@]2(C)CCC[C@H](C)[C@@H](O)[C@@H](C)C(=O)C(C)(C)[C@H](O)CC(=O)O1
IC50 [1]: 0.0028 µM | IC50 [2]: 0.003 µM | IC50 [3]: 0.0027 µM | IC50 [4]: 0.0034 µM | IC50 [5]: 0.0075 µM | IC50 at 5 days [6]: 0.001 µM | IC50 [7]: 0.0031 µM

C[C@@H]1C(=O)c2occ(CO)c2[C@]2(O)CC(C)(C)C[C@H]12
Activity [8]: Non-Toxic

CN(C)[C@@H]1C(O)=C(C(N)=O)C(=O)[C@@]2(O)C(O)=C3C(=O)c4c(O)cccc4[C@@](C)(O)[C@H]3[C@H](O)[C@@H]12 [OXYTETRACYCLINE]
MIC [13]: 9.2 µg/mL (≈ 20 µM)

Cc1cc2[nH]cc(C=O)c2c2c1CC(C)(C)C2
IC50 [1]: 21 µM | MIC ([10]; Hansenula anomala): 33.3 µg/mL (≈ 146 µM) | MIC [9]: 4.2 µg/mL (≈ 18.5 µM) | MIC [13]: 66.6 µg/mL (≈ 293 µM) | MIC [14]: 66.6 µg/mL (≈ 293 µM) | IC50 at 5 days [6]: 41 µM | MIC [11]: 33.3 µg/mL (≈ 146 µM) | MIC [12]: 16.6 µg/mL (≈ 73 µM)
